According to patent EP0583976A2, “Gastroprotective complexes with cyclodextrin” (Bristol-Myers Squibb Company, priority 1992, dated 1994):

How the values were obtained:
[1] = pH of gastric fluid sample obtained from the antrum after dosing; assay type: in vivo, beagles; settings: oral, with 975 mg aspirin (ASA), antacid about 15 mEq where present
Description: (§1) The product obtained above was tested as follows: 10 beagles were fasted overnight. At zero time, the stomach of each animal was endoscopically examined to assure a normal mucosa. Encapsulated compositions containing about 15 mEq MgO in the freshly prepared MgO-CD complex and 975 mg aspirin (ASA) were administered orally and flushed with 50 ml water.
In addition, a sample of gastric fluid was obtained from the antrum, and its general appearance noted and its pH measured.
(§2) wherein n is the number of animals, % Protection is the difference in irritation scores (on the scale of 0 to 7) between Control A and the MgO-CD complex divided by the irritation score for Control A multiplied by 100, and pH is the pH of the antrum fluid sample. The complex of the present invention is seen to have provided a substantial increase in percent protection coupled with a marked increase in pH over the controls.

[2] = test system: beagles; experiment: Endoscopic scoring of aspirin-induced gastric irritation in beagles (scale 0 to 7), percent protection; assay type: in vivo; settings: oral, with 975 mg aspirin (ASA), antacid about 15 mEq where present; endoscopy at two and four hours; versus Control A (ASA alone)
Description: as §1
At two and four hours after administration of the encapsulated composition, the stomachs of the animals were endoscopically reexamined for gastric irritation. Irritation was measured according to a scale of 0 to 7, wherein zero was the condition of the mucosa for a normal stomach and a value of 7 represents massive hemorrhagic damage.
Three control tests were also conducted. In Control A the animals were administered 975 mg ASA. In Control B the animals were administered 6.27 mg α-CD and 975 aspirin and in Control C the animals were administered 15 mEq MgO and 975 aspirin.
as §2

Compound | pH [1] | % Protection [2]
O=C(O)O [MgCO₃] | 3.33 ± 0.81 | 2.1 ± 6.1%
[OH][Al]([OH])[OH] [Al(OH)₃] | 4.72 ± 0.85 | 10.8 ± 4.6%
CC(=O)Oc1ccccc1C(=O)O [Control A, aspirin] | 3.74 ± 0.44 | 0%
CaCO₃ | 4.17 ± 0.90 | 3.0 ± 5%
